Reference: patent US7018824B2, “Mannosyl transfer with regeneration of GDP-mannose” (The Scripps Research Institute, priority 1993, dated 2006)
Where two headings read alike, the source gives them in different places. Peptide text beside a SMILES is read from it. * marks the point of attachment. X1 = OCC1OC(*)C(O)C(O)C1O; Cbz = O=C(OCc1ccccc1)*

Experiments:
[1] = target: T1, Recombinant α1,2-Mannosyltransferase (Saccharomyces cerevisiae, UniProt P27809); assay: Substrate specificity and enzyme kinetics of the mannosyltransfer reaction (GDP-Man + acceptor); type: biochemical; details: for substrate (acceptor) quality in words: 150 mM substrate, 3.3 mM GDP-Man; for Vrelative: calculated as the ratio of Vmax, ManαOMe = 1.0
T1 construct: made in house; host or cells: E. coli XL1-Blue, periplasmic fraction
T1 sequence (P27809 31-442): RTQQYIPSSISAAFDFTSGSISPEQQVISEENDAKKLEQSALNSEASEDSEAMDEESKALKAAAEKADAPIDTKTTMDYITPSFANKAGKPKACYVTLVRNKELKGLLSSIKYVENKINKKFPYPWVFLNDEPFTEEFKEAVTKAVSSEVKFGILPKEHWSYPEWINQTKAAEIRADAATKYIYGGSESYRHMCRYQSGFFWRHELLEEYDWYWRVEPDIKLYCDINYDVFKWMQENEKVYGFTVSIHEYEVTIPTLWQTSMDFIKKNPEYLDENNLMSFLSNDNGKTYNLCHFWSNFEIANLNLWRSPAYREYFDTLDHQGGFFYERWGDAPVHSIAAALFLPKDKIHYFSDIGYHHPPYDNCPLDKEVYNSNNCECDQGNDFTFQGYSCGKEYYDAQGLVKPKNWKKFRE
Description: GDP-Man (^14C) (10 mM, 10 mL), α-methyl mannopyranoside (500 mM, 10 μL) and the enzyme solution (10 μL) were mixed in a buffer containing 50 mM HEPES (pH 7.2), 0.1 percent Triton and 10 mM MnCl2. The mixture was incubated at 30.0° C. for one hour. The unreacted GDP-mannose was removed by adding QAE-Sephadex (400 μL) to the solution. After the resin was removed by centrifugation, the radioactivity of the solution was counted in 10 mL of scintillation fluid. Controls were carried out by omitting the acceptor or the enzyme. The substrate specificity was determined in a 30 μL assay solution containing 150 mM substrate, 3.3 mM GDP-Man, overproduced α1,2-ManT, 50 mM HEPES (pH 7.2), 0.1 percent Triton and 10 mM MnCl2. The mixture was incubated at 30° C. for 1 hour and the formation of product was determined by the radioactivity assay. Initial velocities were measured as described in the enzyme assay at various concentrations of acceptors for kinetic studies. From the Lineweaver-Burk plots of the data, Km and Vmax were determined.

[2] = test system: native α1,2-mannosyltransferase; details: native enzyme, literature value for comparison; cited from earlier work
Enzyme stability study = type: physicochemical; details: after four days at 20° C. in 100 mM Tris-HCl, 5 mM MgCl2 buffer, pH 7.4
Description: The enzyme was incubated at room temperature in 100 mM Tris-HCl buffer, 5 mM MgCl2, pH 7.4, containing 0.5 mM dithiothreitol. At different time intervals, 10 μL aliquots were taken and assayed for mannosyltransferase activity as described above.

[3] = Organic solvent effect study on the mannosyltransfer reaction; type: biochemical
Description: GDP-Man (^14C) (10 mM, 10 μL) and methyl mannopyranoside (500 mM, 10 μL) were mixed with a certain volume of an organic solvent and H2O to achieve the desired organic solvent concentration. The enzyme (10 μL) was then added to the mixture. The solution was incubated at 30.0° C. for 1 hour. The enzyme activity was measured as described in the enzyme assay section.

[4] = α1,2-Mannosyltransferase activity assay; type: biochemical; details: after Superose and Mono Q FPLC purification; one unit transfers 1.0 μmol mannose per minute at 30° C.
Description: GDP-Man (^14C) (10 mM, 10 mL), α-methyl mannopyranoside (500 mM, 10 μL) and the enzyme solution (10 μL) were mixed in a buffer containing 50 mM HEPES (pH 7.2), 0.1 percent Triton and 10 mM MnCl2. The mixture was incubated at 30.0° C. for one hour. The unreacted GDP-mannose was removed by adding QAE-Sephadex (400 μL) to the solution. After the resin was removed by centrifugation, the radioactivity of the solution was counted in 10 mL of scintillation fluid. Controls were carried out by omitting the acceptor or the enzyme.

[5] = acceptor substrate of recombinant enzyme, read-out: Km value
[6] = acceptor with GDP-Man, Lineweaver-Burk plots, 30° C., pH 7.2, read-out: Km (acceptor)

Question: For `OC[C@H]1NC[C@@H](O)[C@@H](O)[C@@H]1O` [1-deoxymannojirimycin, reference compound], which “inhibitor of α1,2-ManT in words” value ([1]; recombinant α1,2-ManT) is on record?
Answer: nor an inhibitor

Question: And the “substrate (acceptor) quality in words” value ([1]; recombinant α1,2-ManT)?
Answer: neither a substrate

Question: What does the source list for `CO[C@H]1O[C@H](CO)[C@@H](O)[C@H](O)[C@@H]1O` [Compound 1, α-methylmannopyranoside, reference compound]?
Answer: Km [1, 5]: 57 mM; Km [1, 6]: 57 mM; Vrelative ([1]; acceptor with GDP-Man): 1.0

Question: Which “Km (acceptor)” value ([1]; acceptor with GDP-Man, Lineweaver-Burk plots, 30° C., pH 7.2) does the source give for `O=C[C@@H](O)[C@@H](O)[C@H](O)[C@H](O)CO` [Compound 2, mannose] here?
Answer: 193 mMO

Question: And the Vrelative ([1]; acceptor with GDP-Man)?
Answer: 0.46

Question: And the Km [2]?
Answer: 100 mM

Question: For `CO[C@H]1O[C@H](CO)[C@@H](O)[C@H](O)[C@@H]1O[C@H]1O[C@H](CO)[C@@H](O)[C@H](O)[C@@H]1O` [Compound 3, Manα1,2ManαOMe], which Km [1, 5] is on record?
Answer: 28 mM

Question: And the Km [1, 6]?
Answer: 28 mM

Question: What about the Vrelative ([1]; acceptor with GDP-Man) of the same molecule?
Answer: 0.62

Question: Which Vrelative ([1]; acceptor with GDP-Man) does the source give for `CO[C@H]1O[C@H](C)[C@@H](O)[C@H](O)[C@@H]1O` [Compound 4, Methyl 6-Deoxy-α-D-mannopyranoside] here?
Answer: 0.06

Question: And the “substrate (acceptor) quality in words” value ([1]; recombinant α1,2-ManT)?
Answer: poor substrates

Question: What does the source list for `CO[C@H]1O[C@H](CN=[N+]=[N-])[C@@H](O)[C@H](O)[C@@H]1O` [Compound 5, 6-Azido-6-deoxy-ManαOMe]?
Answer: Vrelative ([1]; acceptor with GDP-Man): 0.02; substrate (acceptor) quality in words ([1]; recombinant α1,2-ManT): poor substrates

Question: With `CO[C@H]1O[C@H](CN)[C@@H](O)[C@H](O)[C@@H]1O` [Compound 6, 6-Amino-6-deoxy-ManαOMe] as the molecule, how does the Vrelative ([1]; acceptor with GDP-Man) read?
Answer: 0.07

Question: What about the “substrate (acceptor) quality in words” value ([1]; recombinant α1,2-ManT) of the same molecule?
Answer: poor substrates

Question: For `COC(=O)C(NC(=O)C(N)C(C)OC1OC(CO)C(O)C(O)C1O)C(C)C` (stereo not drawn) [Compound 8, Thr(α-Man)-Val-OMe], which Vrelative ([1]; acceptor with GDP-Man) is on record?
Answer: 0.68

Question: And the “substrate (acceptor) quality in words” value ([1]; recombinant α1,2-ManT)?
Answer: good substrates

Question: For `CC(NC(=O)CNC(=O)C(NC(=O)C(NC(=O)OCc1ccccc1)C(C)OC1OC(CO)C(O)C(O)C1O)C(C)C)C(N)=O` (stereo not drawn) [Compound 9, Cbz-Thr(α-Man)-Val-Gly-Ala-NH2] (Cbz-T(X1)VGA-NH2; configuration not given here), which Vrelative ([1]; acceptor with GDP-Man) is on record?
Answer: 0.55

Question: And the “substrate (acceptor) quality in words” value ([1]; recombinant α1,2-ManT)?
Answer: good substrates

Question: Which Km [1, 6] does the source give for `COC(=O)C(NC(=O)C(NC(=O)OCc1ccccc1)C(C)OC1OC(CO)C(O)C(O)C1OC1OC(CO)C(O)C(O)C1O)C(C)C` (stereo not shown) [Compound 11, Cbz-Thr(αManα1,2Man)-Val-OMe] here?
Answer: 26 mM

Question: And the Vrelative ([1]; acceptor with GDP-Man)?
Answer: 0.17

Question: With `CO[C@H]1O[C@H](COS(=O)(=O)c2ccc(C)cc2)[C@@H](O)[C@H](O)[C@@H]1O` [Compound 12, 6-Tosyl-ManαOMe] as the molecule, how does the Vrelative ([1]; acceptor with GDP-Man) read?
Answer: 0.00

Question: Which Vrelative ([1]; acceptor with GDP-Man) does the source give for `O=[N+]([O-])c1ccc(O[C@H]2O[C@H](CO)[C@@H](O)[C@H](O)[C@@H]2O)cc1` [Compound 13, p-nitrophenyl α-mannopyranoside, reference compound] here?
Answer: 0.00

Question: What about the “substrate (acceptor) quality in words” value ([1]; recombinant α1,2-ManT) of the same molecule?
Answer: not substrates

Question: For `O=C[C@@H](O)[C@H](O)[C@H](O)[C@H](O)CO` [D-altrose, reference compound], which “substrate (acceptor) quality in words” value ([1]; recombinant α1,2-ManT) is on record?
Answer: not substrates

Question: With `O=C[C@@H](O)[C@H](O)[C@H](O)CO` [D-arabinose, reference compound] as the molecule, how does the “substrate (acceptor) quality in words” value ([1]; recombinant α1,2-ManT) read?
Answer: not substrates

Question: For `O=C[C@@H](O)[C@H](O)[C@@H](O)[C@H](O)CO` [D-idose, reference compound], which “substrate (acceptor) quality in words” value ([1]; recombinant α1,2-ManT) is on record?
Answer: not substrates

Question: With `O=C[C@@H](O)[C@@H](O)[C@H](O)CO` [D-lyxose, reference compound] as the molecule, how does the “substrate (acceptor) quality in words” value ([1]; recombinant α1,2-ManT) read?
Answer: not substrates

Question: With `O=C[C@@H](O)[C@@H](O)[C@@H](O)[C@H](O)CO` [D-talose, reference compound] as the molecule, how does the “substrate (acceptor) quality in words” value ([1]; recombinant α1,2-ManT) read?
Answer: not substrates

Question: What does the source list for “Boc-Try-Thr(α-Man)-Val-OMe [Compound 10]”?
Answer: Km [1, 5]: 0.7 mM; Km [1, 6]: 0.7 mM; Vrelative ([1]; acceptor with GDP-Man): 0.35; Km, times less than that of Compound 7 ([1]; ratio of Km values): 10 times; Km, times smaller than that of ManαOMe (Compound 1) ([1]; ratio of Km values): 80 times

Question: With Cbz-Thr(α-Man)-Val-OMe [Compound 7] as the molecule, how does the Km [1, 6] read?
Answer: 7.8 mM

Question: And the Vrelative ([1]; acceptor with GDP-Man)?
Answer: 0.71

Question: And the “substrate (acceptor) quality in words” value ([1]; recombinant α1,2-ManT)?
Answer: comparable with ManαOMe as an acceptor

B1: recombinant α1,2-ManT: water-dispersible recombinant α1,2-mannosyltransferase catalytic domain, residues about 31-442 of the S. cerevisiae enzyme, expressed in E. coli (protein)
chain: RTQQYIPSSISAAFDFTSGSISPEQQVISEENDAKKLEQSALNSEASEDSEAMDEESKALKAAAEKADAPIDTKTTMDYITPSFANKAGKPKACYVTLVRNKELKGLLSSIKYVENKINKKFPYPWVFLNDEPFTEEFKEAVTKAVSSEVKFGILPKEHWSYPEWINQTKAAEIRADAATKYIYGGSESYRHMCRYQSGFFWRHELLEEYDWYWRVEPDIKLYCDINYDVFKWMQENEKVYGFTVSIHEYEVTIPTLWQTSMDFIKKNPEYLDENNLMSFLSNDNGKTYNLCHFWSNFEIANLNLWRSPAYREYFDTLDHQGGFFYERWGDAPVHSIAAALFLPKDKIHYFSDIGYHHPPYDNCPLDKEVYNSNNCECDQGNDFTFQGYSCGKEYYDAQGLVKPKNWKKFRE
Question: Which activity retained (Enzyme stability study) does the source give for B1 here?
Answer: more than 90%

Question: What about the remaining activity ([3]; 10-percent DMF-buffer solution) of the same molecule?
Answer: about 80%

Question: What about the remaining activity ([3]; 10 percent acetonitrile-buffer solution) of the same molecule?
Answer: about 50%

Question: And the loss of activity ([3]; DMF or acetonitrile increased to 20 percent)?
Answer: 95%

Question: And the tolerated acetone concentration ([3]; acetone-buffer solution)?
Answer: ≤ 20%

Question: And the tolerated methanol concentration ([3]; methanol-buffer solution)?
Answer: up to 30%

Question: And the specific activity [4]?
Answer: about 1 unit/mg
